Values of other authors in patent publication US8492366B2, “Enhancedly-solubilized beta-hydroxy acids and higher potency skin peels formulated therefrom” (Societe L'Oreal S.A., priority 2002, dated 2013).

maximum solubility in alcohol: ~29%
SMILES: O=C(O)c1ccccc1O [salicylic acid, 2-hydroxybenzoic acid]
